In ChEMBL document CHEMBL3046025, “Fungitoxic Properties of N-Phenylformamidoximes in Control of Benzimidazole-Resistant Isolates of Fungi” (1992):
The source made the active and inactive calls. No cut-off for these calls is given here.

Tests used:
Botrytis cinerea [1] = test: Antifungal activity against Benzimidalzole-resistant Botryotinia fuckeliana isolate Bc-20 infected compound-treated kidney bean leaves at 200 ppm after 4 days; assay type: functional
Botrytis cinerea [2] = test: Antifungal activity against Benzimidalzole-resistant Botryotinia fuckeliana isolate Bc-20 infected compound-treated kidney bean leaves at 50 ppm after 4 days; assay type: functional
Cercospora beticola [3] = test: Antifungal activity against Benzimidalzole-resistant Cercospora beticola isolate 20-2 at 0.001 to 1000 ppm after 14 days by agar dilution method; assay type: functional, organism-based
Cercospora beticola [4] = test: Antifungal activity against Benzimidalzole-resistant Cercospora beticola isolate Cb-19 infected in sugar beet seedlings at 50 ppm applied as soil drench 3 days prior to inoculation; assay type: functional
Botrytis cinerea [5] = test: Antifungal activity against Benzimidalzole-resistant Botryotinia fuckeliana isolate Bc-44 infected compound-treated kidney bean leaves at 0.8 ppm after 4 days; assay type: functional

Compound: C#CCOc1c(Cl)cc(N/C=N/OC)cc1Cl
- Activity (Botrytis cinerea [1]): 11%
- Activity (Botrytis cinerea [2]): 6%
- Activity (Cercospora beticola [3]): inactive

Compound: C#CCOc1cc(N/C=N/OC)cc(Cl)c1OCC#C
- Activity (Cercospora beticola [4]): 68%
- Activity (Botrytis cinerea [5]): 75%
- Activity (Cercospora beticola [3]): inactive
